Our source for the Activity and IC50 values is ChEMBL document CHEMBL1142376, “Novel CADD-based peptidyl vinyl ester derivatives as potential proteasome inhibitors” (Bioorg Med Chem Lett, 2008).

For one test, the system named is HL-60. As to the kind of experiment: Antiproliferative activity against human HL60 cells at 10 umole. The format is functional.
The next test has as its system KB. As to the kind of experiment: Antiproliferative activity against human KB cells at 10 umole. The format is functional.
The subject of another test is BGC-823. Kind of test: Antiproliferative activity against human BGC823 cells at 10 umole. Type of test: functional.
The next test has as its system Bel-7402. As to the kind of experiment: Antiproliferative activity against human Bel7402 cells at 10 umole. The format is functional.
Test [1] is described as follows: Inhibition of post acidic-like activity of 20S proteasome.
Test [2] in a line: Inhibition of chymotrypsin-like activity of 20S proteasome.
A short description of test [3]: Inhibition of trypsin-like activity of 20S proteasome.

Some results are limits rather than exact numbers.

In the case of `CCOC(=O)/C=C/[C@H](Cc1ccc(O)cc1)NC(=O)[C@@H](NC(=O)OC(C)(C)C)C(C)C`, the Activity in the test on HL-60 is reported as 22.1%; in the test on KB it was 1.76%; in the test with BGC-823 it was 18.44%; in the test with Bel-7402, 4.6%. Moreover, the IC50 in test [1], in test [2] and in test [3] was over 100 µmol throughout.
As to `CCOC(=O)/C=C/[C@H](Cc1ccccc1)NC(=O)[C@H](CC(C)C)NC(=O)OC(C)(C)C`, the Activity in the test on HL-60 is recorded as 33.88%; in the test on KB it was -6.67%; in the test with BGC-823 it was 30.21%; with Bel-7402 it was 1.55%. For the same molecule, the IC50 in test [1], in test [2] and in test [3] was over 100 µmol each time.
As for `CCOC(=O)/C=C/[C@H](Cc1ccccc1)NC(=O)[C@@H](NC(=O)OC(C)(C)C)C(C)C`, the Activity with HL-60 is 27.13%; in the test with KB, -1.97%; in the test on BGC-823, 21.27%; with Bel-7402, -3.57%. Further, the IC50 in test [1], in test [2] and in test [3] was over 100 µmol in each case.
Turning to `CCOC(=O)/C=C/[C@H](Cc1ccccc1)NC(=O)[C@H](CO)NC(=O)OC(C)(C)C`, the Activity with HL-60 was 19.98%; in the test on KB, -11.24%; in the test with BGC-823 it was 19.11%; in the test with Bel-7402, -3.14%. Moreover, the IC50 in test [1], in test [2] and in test [3] was over 100 µmol throughout.
For the molecule `CCOC(=O)/C=C/[C@H](Cc1ccccc1)NC(=O)[C@H](Cc1ccccc1)NC(=O)OC(C)(C)C`, the Activity in the test with HL-60 is listed as 25.73%; in the test with KB, -4.66%; with BGC-823 it was 20.9%; in the test with Bel-7402 it was -3.61%. The IC50 in test [1], in test [2] and in test [3] was over 100 µmol in each case.
Take `CCOC(=O)/C=C/[C@H](Cc1ccc(O)cc1)NC(=O)[C@H](Cc1ccccc1)NC(=O)OC(C)(C)C`: the Activity with HL-60 was 23.66%; in the test on KB it was -0.7%; in the test on BGC-823 it was 33.88%; with Bel-7402, 12.68%. For the same molecule, the IC50 in test [1], in test [2] and in test [3] was over 100 µmol each time.
Turning to `CCOC(=O)/C=C/[C@H](Cc1ccc(O)cc1)NC(=O)[C@@H](NC(=O)OC(C)(C)C)[C@@H](C)CC`, the Activity with HL-60 is given as 21.66%; in the test with KB, 5.27%; in the test with BGC-823 it was 23.06%; in the test on Bel-7402, 3.32%. The IC50 in test [1], in test [2] and in test [3] was over 100 µmol each time.
Take `CCOC(=O)/C=C/[C@H](Cc1ccc(O)cc1)NC(=O)[C@H](CC(C)C)NC(=O)OC(C)(C)C`: the Activity is given as 5.87% in the test with HL-60, 1.72% in the test with KB, 17.01% with BGC-823 and -10.27% in the test with Bel-7402. The IC50 in test [1], in test [2] and in test [3] was over 100 µmol each time.
